Experimental findings from patent US20240327429A1, “[1,3]Thiazolo[4,5-d]-pyrimidon-7-ones as inhibitors of NOX4” (Boehringer Ingelheim International GmbH, priority 2023, published 2024) are described below.

For one data set, the target named is T1, human NOX5 (hNOX5) (Homo sapiens, UniProt Q96PH1).
T1 construct: expressed in transfected cells; host or cells: HEK293
T1 sequence (Q96PH1 1-765): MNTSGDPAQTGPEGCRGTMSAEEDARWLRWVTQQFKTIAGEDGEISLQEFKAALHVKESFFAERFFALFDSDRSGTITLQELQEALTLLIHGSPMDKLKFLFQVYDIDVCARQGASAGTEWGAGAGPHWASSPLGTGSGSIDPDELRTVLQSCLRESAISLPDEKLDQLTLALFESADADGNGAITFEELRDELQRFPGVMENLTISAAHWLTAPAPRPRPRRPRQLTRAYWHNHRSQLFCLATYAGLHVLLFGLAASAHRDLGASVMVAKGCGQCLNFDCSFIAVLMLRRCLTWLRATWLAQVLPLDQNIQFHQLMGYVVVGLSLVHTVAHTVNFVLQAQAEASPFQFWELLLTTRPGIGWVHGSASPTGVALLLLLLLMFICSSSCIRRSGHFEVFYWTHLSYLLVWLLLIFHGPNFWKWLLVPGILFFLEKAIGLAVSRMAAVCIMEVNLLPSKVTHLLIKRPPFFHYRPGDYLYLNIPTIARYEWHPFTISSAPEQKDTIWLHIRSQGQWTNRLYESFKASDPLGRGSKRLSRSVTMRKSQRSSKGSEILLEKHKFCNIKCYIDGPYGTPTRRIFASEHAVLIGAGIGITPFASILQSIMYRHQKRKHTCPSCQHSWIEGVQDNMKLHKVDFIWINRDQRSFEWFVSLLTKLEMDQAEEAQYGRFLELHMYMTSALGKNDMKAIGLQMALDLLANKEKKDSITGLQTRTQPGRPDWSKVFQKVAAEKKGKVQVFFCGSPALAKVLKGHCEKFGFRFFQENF
The data set is described as follows: NOX5 inhibition assay (L-012), HEK293 cells stably overexpressing human NOX5. The note with it: HEK293-hNOX5, PMA stimulated. It counts as cell-based. Here is the method: The synthetic gene hNOX5 (Accession: Q96PH1) is cloned into pcDNA3.1_Zeo. […] The final construct is verified by sequencing.
Evaluation of the NOX4 inhibitors on NOX5 activity is assessed in HEK293 cells stably overexpressing human NOX5 (hNOX5).
Cells are seeded in 384 well plates over-night. […] Cells are then stimulated with PMA at 0.1 μM to induce NOX5-dependent ROS production. […] Luminescence is measured with an PHERAstar multimode reader.

The target of the next data set is T2, human NOX4 (hNOX4) (Homo sapiens, UniProt Q9NPH5).
T2 sequence (Q9NPH5 1-578): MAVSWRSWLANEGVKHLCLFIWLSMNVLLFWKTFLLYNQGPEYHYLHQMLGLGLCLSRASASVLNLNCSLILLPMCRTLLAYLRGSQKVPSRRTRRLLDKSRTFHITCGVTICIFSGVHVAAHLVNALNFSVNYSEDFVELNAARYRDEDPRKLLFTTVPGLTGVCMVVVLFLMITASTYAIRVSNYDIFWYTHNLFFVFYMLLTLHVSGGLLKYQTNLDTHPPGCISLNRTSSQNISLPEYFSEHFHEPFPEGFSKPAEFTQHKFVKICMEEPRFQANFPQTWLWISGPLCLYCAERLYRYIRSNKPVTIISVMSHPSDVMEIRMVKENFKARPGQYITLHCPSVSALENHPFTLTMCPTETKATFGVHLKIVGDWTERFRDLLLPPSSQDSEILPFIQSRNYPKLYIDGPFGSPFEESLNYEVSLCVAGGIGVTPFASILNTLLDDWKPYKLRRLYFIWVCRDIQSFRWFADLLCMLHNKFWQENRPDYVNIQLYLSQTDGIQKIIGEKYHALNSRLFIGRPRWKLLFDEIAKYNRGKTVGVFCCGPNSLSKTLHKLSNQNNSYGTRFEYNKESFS
T2 sequence (P13498 2-195 partner limits assumed): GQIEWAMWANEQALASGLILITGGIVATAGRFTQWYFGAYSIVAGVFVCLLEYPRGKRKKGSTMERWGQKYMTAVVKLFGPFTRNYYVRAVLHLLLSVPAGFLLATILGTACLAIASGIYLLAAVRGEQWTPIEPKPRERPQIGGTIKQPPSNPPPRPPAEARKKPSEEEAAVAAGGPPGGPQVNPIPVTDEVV
The data set can be described thus: cell-based.

The next data set concerns human hepatocytes. The data set can be described thus: Evaluation of hepatocyte clearance (metabolic stability). Conditions: 1 μM test compound, 5% human serum, Table 3. In kind it is in vitro ADME. The method, then:
The metabolic degradation of the test compound is assayed in a hepatocyte suspension. Hepatocytes (cryopreserved) are incubated in Dulbecco's modified eagle medium (supplemented with […] glucagon/500 mL, 2.5 mg insulin/500 mL and 3.75 mg/500 mL hydrocortisone) containing 5% human serum.
Following a 30 min preincubation in an incubator (37° C., 10% CO2) 5 μl of test compound solution (80 μM; from 2 mM in DMSO stock solution diluted 1:25 with medium) are added into 395 μl hepatocyte suspension (cell density in the range 0.25-5 Mio cells/mL, typically 1 Mio cells/mL; final concentration of test compound 1 μM, final DMSO concentration 0.05%).
The cells are incubated for six hours (incubator, orbital shaker) and samples (25 μl) are taken at 0, 0.5, 1, 2, 4 and 6 hours. Samples are transferred into acetonitrile and pelleted by centrifugation (5 min). The supernatant is transferred to a new 96-deepwell plate, evaporated under nitrogen and resuspended.
Decline of Parent Compound is Analyzed by HPLC-MS/MS.
CLint is Calculated as Follows:
CL_[…]=Dose/AUC=(C0/CD)/(AUD+clast/k)×1000/60. • C0: initial concentration in the incubation [μM], CD: cell density of vital cells [10^6 cells/mL], AUD: area under the data [μM×h], clast: concentration of last data point [μM], • k: slope of the regression line for parent decline [h-1].
The calculated in vitro hepatic intrinsic clearance can be scaled up to the intrinsic in vivo hepatic clearance and used to predict hepatic in vivo blood clearance (CL) by the use of a liver model (well stirred model).
CL_[…]_INVIVO[ml/min/kg]=(CL_[…][μL/min/10^6 cells]×hepatocellularity[10^6 cells/g liver]×liver factor[g/kg bodyweight])/1000
CL[ml/min/kg]=CL_[…]_INVIVO[ml/min/kg]×hepatic blood flow[ml/min/kg]/(CL_[…]_INVIVO[ml/min/kg]+hepatic blood flow[ml/min/kg])

Method for human NOX4 (hNOX4): The synthetic gene phNOX4_DNA3_1_Zeo (Accession: AAF68973) is assembled from synthetic oligonucleotides and/or PCR products. The fragment is cloned into pcDNA3.1_Zeo_A011 using NheI and XhoI cloning sites. The plasmid DNA is purified from transformed bacteria and its concentration is determined by UV spectroscopy. The final construct is verified by sequencing. The plasmid is transfected via electroporation (Amaxa electroporation device) in combination with Nucleofector Kit V. Selection of NOX4 overexpressing genes is achieved using selection antibiotic Zeocin.
The inhibitory activity of the example compounds of the invention is determined using the following procedure:
Cells are cultured in the Dulbecco's Modified Eagle Medium (DMEM) media containing 4.5 g/L glucose supplemented with 10% fetal calf serum and 250 μg/ml Zeocin in an incubator at 37° C. with 5% CO2. For the assay, cells are seeded in 384 well plates.
After incubation Lumigen HyPerBlu™ is added and cells are incubated for additional 30 min at 24° C. in a humidified incubator. Next, luminescence is measured using an Envision Multimode Plate reader to determine levels of produced H2O2 in the wells.

With `Cc1cc(F)ccc1CSc1nc2ncsc2c(=O)n1-c1ccc(O)nn1` [Example 68], the IC50 is above 100000 nM against human NOX5 (hNOX5) and 143 nM on human NOX4 (hNOX4).
As for `O=c1c2scnc2nc(SCc2c(F)cc(F)cc2F)n1-c1ccc(O)nn1` [Example 67], the results for the IC50 on human NOX5 (hNOX5) and against human NOX4 (hNOX4) were above 100000 nM and 165 nM, respectively. In addition, in the data set on human hepatocytes, the “Qh [%]” value is reported as 37%.
As for `O=c1c2scnc2nc(SCc2ccc(C(F)(F)F)cc2F)n1-c1ccc(O)nc1` [Example 26], the IC50 worked out at 57400 nM against human NOX5 (hNOX5) and 120 nM at human NOX4 (hNOX4). The “Qh [%]” value with human hepatocytes is on record as 41%.
Turning to `O=c1c2scnc2nc(SCc2ccc(C(F)(F)F)cc2F)n1-c1cc(F)c(O)c(F)c1` [Example 6], the values for the 50% inhibitory concentration (IC50) on human NOX5 (hNOX5) and on human NOX4 (hNOX4) were above 100000 nM and 87 nM, respectively.
For `O=c1c2scnc2nc(SCc2ccc(C(F)(F)F)cc2F)n1-c1cnc(O)c(F)c1` [Example 42], the IC50 is 46800 nM against human NOX5 (hNOX5) and 62 nM at human NOX4 (hNOX4). In the data set with human hepatocytes, the “Qh [%]” value amounted to 14%.
With `O=c1c2scnc2nc(SCc2c(F)cc(F)cc2F)n1-c1c(F)cc(O)cc1F` [Example 13], the IC50 is 5100 nM on human NOX5 (hNOX5) and 61 nM against human NOX4 (hNOX4).
`Cc1cc(Cl)ccc1CSc1nc2ncsc2c(=O)n1-c1cnc(O)nc1` [Example 54]: the IC50 against human NOX5 (hNOX5) stood at 47600 nM; at human NOX4 (hNOX4), 111 nM. Further, the “Qh [%]” value in the data set on human hepatocytes came to 33%.
The like results for `O=c1c2scnc2nc(SCc2c(F)ccc(F)c2F)n1-c1cnc(O)c(F)c1` [Example 45] were, in that order, 79000 nM, 113 nM and 23%.
In the case of `N#Cc1cc(-n2c(SCc3c(F)cc(F)cc3F)nc3ncsc3c2=O)cnc1O` [Example 47, 2-Hydroxy-5-(7-oxo-5-((2,4,6-trifluorobenzyl)thio)thiazolo[4,5-d]pyrimidin-6(7H)-yl)-nicotinonitrile], the IC50 against human NOX5 (hNOX5) is above 100000 nM; at human NOX4 (hNOX4) it was 426 nM. The “Qh [%]” value in the data set with human hepatocytes is reported as 15%.
The like results for `O=c1c2scnc2nc(SCc2ccc(Cl)cc2)n1-c1ccc(O)nn1` [Example 64] were, in that order, above 100000 nM, 133 nM and 47%.
For the molecule `O=c1c2scnc2nc(SCc2c(F)cc(F)cc2F)n1-c1ccc(O)cn1` [Example 19], the half-maximal inhibitory concentration (IC50) against human NOX5 (hNOX5) was above 100000 nM. Moreover, the “Qh [%]” value in the data set with human hepatocytes came to 52%.
On to `O=c1c2scnc2nc(SCc2ccc(C(F)(F)F)cc2)n1-c1cnc(O)c(F)c1` [Example 32, 6-(5-Fluoro-6-hydroxypyridin-3-yl)-5-((4-(trifluoromethyl)benzyl)thio)thiazolo[4,5-d]pyrimidin-7(6H)-one], for which the IC50 stood at 55700 nM against human NOX5 (hNOX5) and 40 nM at human NOX4 (hNOX4). The “Qh [%]” value in the data set on human hepatocytes was found to be 15%.
Regarding `Cc1cc(F)cc(C)c1CSc1nc2ncsc2c(=O)n1-c1ccc(O)nn1` [Example 63], the IC50 was above 100000 nM against human NOX5 (hNOX5) and 126 nM on human NOX4 (hNOX4).
On to `N#Cc1cc(-n2c(SCc3c(F)cc(F)cc3F)nc3ncsc3c2=O)ccc1O` [Example 18], for which the values for the IC50 on human NOX5 (hNOX5) and at human NOX4 (hNOX4) were above 100000 nM and 117 nM, respectively. Besides, the “Qh [%]” value with human hepatocytes is reported as 48%.
The like results for `O=c1c2scnc2nc(SCc2ccc(F)cc2Br)n1-c1cnc(O)c(F)c1` [Example 44] were, in that order, 68100 nM, 63 nM and 29%.
Regarding `O=c1c2scnc2nc(SCc2ccc(C(F)(F)F)cc2)n1-c1cc(F)c(O)c(F)c1` [Example 7], the IC50 against human NOX5 (hNOX5) was above 100000 nM; against human NOX4 (hNOX4), 77 nM. Moreover, the “Qh [%]” value in the data set on human hepatocytes is 55%.
The like results for `O=c1c2scnc2nc(SCc2c(F)cc(F)cc2F)n1-c1ccc(O)cc1` [Example 15] were, in that order, 59000 nM, 33 nM and 61%.
As for `O=c1c2scnc2nc(SCc2ccc(Cl)cc2F)n1-c1cc(F)c(O)c(F)c1` [Example 2, 5-((4-Chloro-2-fluorobenzyl)thio)-6-(3,5-difluoro-4-hydroxyphenyl)thiazolo[4,5-d]-pyrimidin-7(6H)-one], the IC50 against human NOX5 (hNOX5) was above 100000 nM; against human NOX4 (hNOX4) it was 39 nM. In addition, the “Qh [%]” value with human hepatocytes came out at 53%.
The like results for `O=c1c2scnc2nc(SCc2c(F)cc(F)cc2Cl)n1-c1cnc(O)c(F)c1` [Example 41] were, in that order, 35800 nM, 60 nM and 26%.
The like results for `O=c1c2scnc2nc(SCc2ccc(Cl)cc2F)n1-c1ccc(O)nc1` [Example 22, 5-((4-Chloro-2-fluorobenzyl)thio)-6-(6-hydroxypyridin-3-yl)thiazolo[4,5-d]pyrimidin-7(6H)-one] were, in that order, above 100000 nM, 69 nM and 45%.
The like results for `Cc1cc(F)cc(C)c1CSc1nc2ncsc2c(=O)n1-c1cnc(O)nc1` [Example 55] were, in that order, 85800 nM, 116 nM and 15%.
Consider `Cc1cc(F)cc(C)c1CSc1nc2ncsc2c(=O)n1-c1cc(F)c(O)c(F)c1` [Example 4], for which the IC50 against human NOX5 (hNOX5) is above 100000 nM; at human NOX4 (hNOX4) it was 91 nM. Also, the “Qh [%]” value in the data set with human hepatocytes came to 41%.
The like results for `O=c1c2scnc2nc(SCc2c(F)cc(F)cc2F)n1-c1cc(F)c(O)cn1` [Example 20] were, in that order, 32700 nM, 127 nM and 51%.
As for `O=c1c2scnc2nc(SCc2ccc(C(F)(F)F)cc2)n1-c1ccc(O)nc1` [Example 27], the concentration for half-maximal inhibition (IC50) at human NOX5 (hNOX5) amounted to 93300 nM; against human NOX4 (hNOX4), 135 nM. In the data set with human hepatocytes, the “Qh [%]” value is recorded as 37%.
As to `O=c1c2scnc2nc(SCc2c(F)cc(F)cc2F)n1-c1ccc(O)c(F)c1F` [Example 12], the “Qh [%]” value in the data set on human hepatocytes stood at 77%. The molecule further yielded an IC50 on human NOX4 (hNOX4) of 51 nM.
Regarding `Cc1cc(Cl)ccc1CSc1nc2ncsc2c(=O)n1-c1cc(F)c(O)c(F)c1` [Example 3], the figures for the IC50 against human NOX5 (hNOX5) and against human NOX4 (hNOX4) were above 100000 nM and 73 nM, respectively.
The like results for `Cc1c(F)cccc1CSc1nc2ncsc2c(=O)n1-c1cnc(O)c(F)c1` [Example 40] were, in that order, 56300 nM and 59 nM.
